Like-named read-outs stand apart in the source and are kept apart here. Values belong to the compound of their own block, whether it stands above or below them.
Assays:
[1] = tested on: LXRα/β; test: Ligand induced translocation of LXRα/β to the nucleus, imaging flow cytometry in HaCaT; type: cell-based, human; details: 10^–7 M, 12 h
Procedure: (§1) HaCaT cells were plated in DMEM plus 5% cFBS either on a sterile glass cover slip placed in a well of a 6-well plates for immunofluorescence (IF) assays or TPP Petri dishes for image-stream flow cytometry, and treated with 10^–7 M D3- or L3-hydroxyderivatives or 0.1% ethanol (vehicle) as a negative control was added to each well, and the cells were incubated for 12 or 24 h at 37 °C with 5% CO2. For IF the cells were fixed in 4% paraformaldehyde for 15 min, incubated in 0.5% Triton X-100 in phosphate-buffered saline (PBS) for 5 min, and washed 3 times in PBS. After blocking with 2% bovine serum albumin (BSA) in PBS for 1 h at room temperature, the cells were treated with an anti-LXRα antibody (Novus Biologicals, LLC, Centennial, CO) at 1:200 in PBS supplemented with 2% BSA overnight in 4 °C. After washing the slides were incubated with a mouse anti-rabbit IgG-FITC (Santa Cruz Biotechnology, Inc, Dallas, TX) at 1:200 dilution for 1.5 h at 37 °C. After washing the slides were mounted using propidium iodide (PI) (Vector Labs, Burlingame, California) as a nuclear counterstain. The slides were examined using a KEYENCE America BZ-X710 Fluorescence Microscope (Itasca, IL). The images were subsequently analyzed using the JACoP plugin for colocalization analysis with ImageJ[74]. Five separate high-power field (40×) images were converted to grayscale and analyzed for each condition. Manders’ coefficient (M1), calculated using a preset threshold, was used to quantify the degree of colocalization between PI and LXRα with 0 representing no colocalization, and 1 representing perfect colocalization.
For Image Stream II (Amnis, Seattle, WA, USA) cytometer analyses, HaCaT cells were detached and processed as previously described. The cells were fixed with paraformaldehyde and permeabilized in methanol containing buffer[78],[79] and Hoechst stain (r37165, ThermoFisher) and rabbit antibodies to LXRα/β (sc 377260, AF 647, SantaCruz) or VDR (sc-13133, AF 488, SantaCruz) as described previously. Data were analyzed using IDEAS software (Amnis, Seattle, WA, USA).

[2] = molecular target: T1, LBD of LXRβ (Homo sapiens, UniProt P55055); test: LanthaScreen TR-FRET LXRβ coactivator assay (LXR binding assay); type: biochemical
T1 construct: purchased Thermo Fisher Scientific
T1 sequence (P55055 222-460 limits assumed): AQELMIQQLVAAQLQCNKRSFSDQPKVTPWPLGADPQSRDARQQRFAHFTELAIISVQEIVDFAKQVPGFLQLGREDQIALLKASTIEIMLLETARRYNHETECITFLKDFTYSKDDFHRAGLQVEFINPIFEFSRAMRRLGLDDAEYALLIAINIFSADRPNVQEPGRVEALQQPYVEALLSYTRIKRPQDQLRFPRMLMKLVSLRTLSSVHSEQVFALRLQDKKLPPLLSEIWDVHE
Procedure: (§2) Binding assays of graded concentrations of vitamin D3 or lumisterol hydroxyderivatives to LXRα/β were performed using the LanthaScreen TR-FRET LXRα/β Coactivator kit (Thermo Fisher Scientific, Inc., Waltham, MA) following the manufacture’s protocol. Briefly, after addition of LXRα/β-LBD to the derivatives, a mixture of peptide (Fluorescein-TRAP220/DRIP-2 for LXRα or Fluorescein-D22 for LXRβ) and antibody (Tb-anti-GST) was added to the reaction followed by incubation in room temperature for 2 h. TR-FRET ratio was calculated by dividing the emission at 520 nm by the emission at 495 nm using Synergy neo2 (BioTek, Winooski, VT).

[3] = molecular target: T2, LXRα (Homo sapiens, UniProt Q13133); test: Ligand induced translocation of LXRα to the nucleus, immunofluorescence in HaCaT; type: cell-based; details: 10^−7 M, 24 h
T2 construct: endogenous in cells; host or cells: HaCaT keratinocytes
T2 sequence (Q13133 1-447): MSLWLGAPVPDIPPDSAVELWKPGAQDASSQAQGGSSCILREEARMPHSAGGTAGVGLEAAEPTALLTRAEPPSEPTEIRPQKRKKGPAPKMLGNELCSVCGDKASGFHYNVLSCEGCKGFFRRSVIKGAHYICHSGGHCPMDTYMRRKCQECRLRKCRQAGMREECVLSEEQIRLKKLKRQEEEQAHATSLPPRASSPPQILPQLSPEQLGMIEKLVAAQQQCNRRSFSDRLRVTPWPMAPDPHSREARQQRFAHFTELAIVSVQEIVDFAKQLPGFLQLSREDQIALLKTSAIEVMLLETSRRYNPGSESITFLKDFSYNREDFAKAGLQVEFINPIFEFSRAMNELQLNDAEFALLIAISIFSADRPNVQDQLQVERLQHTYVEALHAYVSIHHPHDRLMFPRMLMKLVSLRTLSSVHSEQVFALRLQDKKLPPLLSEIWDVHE
Procedure: as §1

[4] = tested on: genes downstream of LXR; test: qPCR of genes downstream of LXR in murine dermal fibroblasts; type: cell-based, mouse; details: 10^–7 M, 24 h
Procedure: All animal studies followed guidelines outlined by the NIH Guide for the Care and Use of Laboratory Animals and protocols were approved by the Institutional Animal Care and Use Committee at the NIEHS or the UAB. The study was carried out in compliance with the ARRIVE guidelines (http://www.nc3rs.org.uk/page.asp?id=1357). Skin samples from newborn C57BL/6 mice were collected at the NIEHS. Dermal fibroblasts were isolated from the skin of newborn mice, 1–2 day old. Briefly, we followed the protocols described previously. The skin was washed in PBS, cut into smaller pieces and incubated in 2.4 U/ml of dispase II (Roche) overnight at 4 °C. The dermis was separated from the epidermis and incubated in 0.1% collagenase (Roche) at 4 °C overnight. Next day, it was cut into smaller pieces and incubated for 1 h in 0.25% Trypsin (CellGrow) at 37 °C. Single cell suspension was prepared by pipetting and draining through a cell strainer. After centrifugation, cell pellets were suspended in DMEM medium containing 10% charcoal-stripped fetal bovine serum (cFBS), mouse fibroblasts growth factor (FGF) and 1% antibiotic, and inoculated into tissue culture dishes (Midwest Scientific, TPP). Cells, in early passages, from different mice were pooled together to provide representative samples for experiments. Fibroblasts were cultured in Petri dishes (10 cm in diameter) in DMEM and 10% cFBS and triplicate semi-confluent cultures were treated as described.
RNA isolated from either fibroblasts, HaCaT cells or brain was submitted for cDNA synthesis (High Capacity cDNA Reverse Transcription Kit with RNase Inhibitor, Applied Biosystems) following the manufacturers’ protocols. RT-PCR was carried out using Cyber green, in triplicates; as previously described. Approximately, 750 ng of cDNA was used for PCR reactions. GAPDH and CIC-B were used as internal controls. Primer sequences are listed in Supplementary Table 27. Data were analyzed using GraphPad Prism statistical software one way ANOVA or t-test, where appropriate; *p < 0.05; **p < 0.01; ***p < 0.001.

[5] = molecular target: T3, VDR (Homo sapiens, UniProt P11473); test: Translocation of VDR to the nucleus, imaging flow cytometry in HaCaT; type: cell-based; details: 10^–7 M, 12 h
T3 construct: endogenous in cells; host or cells: HaCaT keratinocytes
T3 sequence (P11473 1-427): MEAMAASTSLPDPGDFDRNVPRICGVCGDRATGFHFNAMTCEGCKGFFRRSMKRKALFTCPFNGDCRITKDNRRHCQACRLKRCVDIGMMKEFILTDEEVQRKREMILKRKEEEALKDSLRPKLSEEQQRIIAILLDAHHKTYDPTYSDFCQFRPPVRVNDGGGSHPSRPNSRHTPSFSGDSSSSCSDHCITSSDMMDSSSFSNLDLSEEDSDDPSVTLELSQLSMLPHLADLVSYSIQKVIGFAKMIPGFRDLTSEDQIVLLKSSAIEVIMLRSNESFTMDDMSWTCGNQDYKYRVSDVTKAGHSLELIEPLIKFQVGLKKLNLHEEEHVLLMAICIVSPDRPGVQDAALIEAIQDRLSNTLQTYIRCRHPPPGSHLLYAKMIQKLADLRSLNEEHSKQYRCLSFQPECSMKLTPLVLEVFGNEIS

[6] = molecular target: T4, LBD of LXRα (Homo sapiens, UniProt Q13133); test: LanthaScreen TR-FRET LXRα coactivator assay (LXR binding assay); type: biochemical
T4 construct: after addition of LXRα/β-LBD to the derivatives; purchased Thermo Fisher Scientific
T4 sequence (Q13133 209-447 limits assumed): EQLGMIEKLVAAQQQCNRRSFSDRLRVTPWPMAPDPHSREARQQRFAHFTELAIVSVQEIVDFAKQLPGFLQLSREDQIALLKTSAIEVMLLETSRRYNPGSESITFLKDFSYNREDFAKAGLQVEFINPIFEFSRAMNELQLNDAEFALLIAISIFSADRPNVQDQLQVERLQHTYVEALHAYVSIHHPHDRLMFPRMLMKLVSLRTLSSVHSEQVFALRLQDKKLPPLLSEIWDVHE
Procedure: as §2

[7] = tested on: LXR-response element (LXRE)-driven reporter in CHO cells; test: LXRE-driven luciferase reporter assay in CHO cells; type: cell-based; details: 10^–7 M, CHO and HaCaT cells (Fig. 4C)
Procedure: The effects of vitamin D3 and L3 hydroxyderivatives were tested on the LXRE transcriptional activity using pGreenFire1-LXRE-in-ApoE Lentivirus (System Biosciences, Palo Alto, CA). This plasmid was transduced in CHO and HaCaT cells following the manufacture’s protocol and the cells used as a stable LXRE expressed tool. Briefly, the virus was transduced into the cells using TransDux MAX Lentivirus Transduction Enhancer (System Biosciences, Palo Alto, CA) and screened to select the transduced cells using puromycin. The transduced cells were treated with the compounds for 24 h in media containing 5% cFBS (charcoal-treated fetal bovine serum) and the luminescence was read by ONE-Glo Luciferase Assay System (Promega, Madison, WI) using Cytation 5 (BioTek, Winooski, VT).

[8] = agonist, average values, read-out: LXRβ EC50
[9] = agonist, average values, read-out: LXRα EC50

SMILES: C=C1/C(=C\C=C2/CCC[C@@]3(C)[C@H]2CC[C@@H]3[C@@](C)(O)CCCC(C)C)C[C@@H](O)C[C@@H]1O [1,20(OH)2D3]
translocation of LXRα/β from the cytoplasm to the nucleus [1]: increased translocation
EC50 [2, 8]: 270 nM
translocation of LXRα to the nucleus (immunofluorescence, Manders' coefficient) [3]: induced translocation
ApoE (apolipoprotein E) expression [4]: enhanced
Cyp7a1 expression [4]: inhibited
translocation of VDR from the cytoplasm to the nucleus [5]: increased translocation

SMILES: C=C1CC[C@H](O)C/C1=C/C=C1\CCC[C@@]2(C)[C@H]1CC[C@@H]2[C@@](C)(O)CCCC(C)(C)O [20,25(OH)2D3]
EC50 [2, 8]: 2100 nM
EC50 [6, 9]: 350 nM

SMILES: CC(C)CCC(O)C(C)(O)C1CCC2C3=CC=C4CC(O)CCC4(C)C3CCC21C (stereo not drawn) [20,22(OH)2L3]
translocation of LXRα/β from the cytoplasm to the nucleus [1]: increased translocation
EC50 [2, 8]: 2000 nM
EC50 [6, 9]: 1500 nM
translocation of LXRα to the nucleus (immunofluorescence, Manders' coefficient) [3]: induced translocation
translocation of VDR from the cytoplasm to the nucleus [5]: increased translocation

SMILES: CC(C)CCC[C@](C)(O)[C@H]1CC[C@H]2C3=CC=C4C[C@@H](O)CC[C@@]4(C)[C@@H]3CC[C@@]21C [20(OH)L3]
translocation of LXRα/β from the cytoplasm to the nucleus [1]: increased translocation
EC50 [2, 8]: 21 nM
EC50 [6, 9]: 1800 nM
translocation of LXRα to the nucleus (immunofluorescence, Manders' coefficient) [3]: induced translocation
Abca1 expression [4]: inhibited
Abcg8 expression [4]: inhibited
ApoE (apolipoprotein E) expression [4]: inhibited
Cyp7a1 expression [4]: inhibited
Lpl (lipoprotein lipase) expression [4]: inhibited
translocation of VDR from the cytoplasm to the nucleus [5]: increased translocation

SMILES: C=C1CC[C@H](O)C/C1=C/C=C1\CCC[C@]2(C)[C@@H]([C@H](C)CCCC(C)C)CC[C@@H]12 [D3, Vitamin D3, reference compound]
EC50 [2]: 890 nM
EC50 [6]: 760 nM

SMILES: C=C1C(=CC=C2CCCC3(C)C2CCC3C(C)(O)CCCC(C)(C)O)CC(O)CC1O (stereo not drawn) [1,20,25(OH)3D3]
LXRE luciferase (transcriptional) activity [7]: strongest stimulatory effects
EC50 [2, 8]: 3.8 nM

SMILES: C=C1C(=CC=C2CCCC3(C)C2CCC3C(C)(O)CCC(O)C(C)C)CC(O)CC1O (stereo not drawn) [1,20,24(OH)3D3]
LXRE luciferase (transcriptional) activity [7]: strongest stimulatory effects

SMILES: CC(C)CCC[C@](C)(O)[C@H]1CC[C@H]2C3=CC=C4C[C@@H](O)CC[C@]4(C)[C@H]3CC[C@@]21C [20(OH)7DHC, reference compound]
Abcg5 expression [4]: stimulated
Abcg8 expression [4]: inhibited
ApoE (apolipoprotein E) expression [4]: inhibited
Cyp7a1 expression [4]: inhibited
Fas (fatty acid synthase) expression [4]: stimulated

The next lines start with the values.

EC50 [2, 8]: 14000 nM
EC50 [6, 9]: 640 nM
SMILES: CC(C)CCC(O)[C@@H](C)[C@H]1CC[C@H]2C3=CC=C4C[C@@H](O)CC[C@@]4(C)[C@@H]3CC[C@]12C (stereo partly drawn) [22(OH)L3]

EC50 [2, 8]: 1300 nM
EC50 [6, 9]: 3600 nM
SMILES: CC(CC[C@H](O)C(C)C)[C@H]1CC[C@H]2C3=CC=C4C[C@@H](O)CCC4(C)[C@@H]3CC[C@]12C (stereo partly drawn) [24(OH)L3]

EC50 [2, 8]: 110 nM
EC50 [6, 9]: 250 nM
SMILES: CC(C)CCC[C@@H](C)[C@H]1CC[C@H]2C3=CC=C4C[C@@H](O)CC[C@@]4(C)[C@@H]3CC[C@]12C [L3, lumisterol]

EC50 [2, 8]: 1.3 nM
EC50 [6, 9]: 26 nM
SMILES: C[C@H](CO)CCC[C@@H](C)[C@H]1CC[C@H]2C3=CC=C4C[C@@H](O)CC[C@@]4(C)[C@@H]3CC[C@]12C [(25S)-27(OH)L3]

EC50 [2, 8]: 550 nM
EC50 [6, 9]: 820 nM
SMILES: C[C@@H](CO)CCC[C@@H](C)[C@H]1CC[C@H]2C3=CC=C4C[C@@H](O)CC[C@@]4(C)[C@@H]3CC[C@]12C [(25R)-27(OH)L3]

EC50 [2, 8]: 1900 nM
EC50 [6, 9]: 140 nM
SMILES: CC(CCCC(C)(C)O)[C@H]1CC[C@H]2C3=CC=C4C[C@@H](O)CC[C@@]4(C)[C@@H]3CC[C@]12C (stereo partly drawn) [25(OH)L3]

Source: publication PMC8044163, “Vitamin D and lumisterol derivatives can act on liver X receptors (LXRs)” (Scientific Reports, 2021)
